Numbers after ± are expanded uncertainties.
Tests used:
[1] = Crystal
[2] = Molar enthalpy of transition or fusion; details: Crystal; DSC
[3] = molar heat capacity at constant pressure; details: 100 kPa, Small sample (50 mg) DSC

For `N#Cc1ccccc1-c1ccc(CBr)cc1` [4'-(bromomethyl)-2-cyanobiphenyl], the molar volume ([1]; 293.15 K, 101.33 kPa, Pycnometric method) was 0.000223 ± 1.2e-06 m3/mol, the Normal melting temperature ([1]; DTA) was 126.06 ± 0.53 °C and the “Molar enthalpy of transition or fusion” value [2] was 29.5 ± 0.65 kJ/mol. For the same molecule, the “molar heat capacity at constant pressure” value ([3]; 293.15 K, Crystal) was 253.23 ± 11 J/K/mol, the “molar heat capacity at constant pressure” value ([3]; 297.15 K, Crystal) was 256.2 ± 11 J/K/mol and the “molar heat capacity at constant pressure” value ([3]; 301.15 K, Crystal) was 259.07 ± 11 J/K/mol. The “molar heat capacity at constant pressure” value ([3]; 305.15 K, Crystal) was 261.5 ± 11 J/K/mol, the “molar heat capacity at constant pressure” value ([3]; 309.15 K, Crystal) was 265.03 ± 11 J/K/mol and the “molar heat capacity at constant pressure” value ([3]; 313.15 K, Crystal) was 268.1 ± 11 J/K/mol. The “molar heat capacity at constant pressure” value ([3]; 317.15 K, Crystal) was 271.41 ± 12 J/K/mol, the “molar heat capacity at constant pressure” value ([3]; 321.15 K, Crystal) was 274.74 ± 12 J/K/mol and the “molar heat capacity at constant pressure” value ([3]; 325.15 K, Crystal) was 277.96 ± 12 J/K/mol. The “molar heat capacity at constant pressure” value ([3]; 329.15 K, Crystal) was 281.51 ± 12 J/K/mol, the “molar heat capacity at constant pressure” value ([3]; 333.15 K, Crystal) was 284.37 ± 12 J/K/mol and the “molar heat capacity at constant pressure” value ([3]; 337.15 K, Crystal) was 287.74 ± 12 J/K/mol. For the same molecule, the “molar heat capacity at constant pressure” value ([3]; 341.15 K, Crystal) was 291.32 ± 12 J/K/mol, the “molar heat capacity at constant pressure” value ([3]; 345.15 K, Crystal) was 294.58 ± 12 J/K/mol and the “molar heat capacity at constant pressure” value ([3]; 349.15 K, Crystal) was 298.15 ± 13 J/K/mol. The “molar heat capacity at constant pressure” value ([3]; 353.15 K, Crystal) was 300.62 ± 13 J/K/mol, the “molar heat capacity at constant pressure” value ([3]; 357.15 K, Crystal) was 303.82 ± 13 J/K/mol and the “molar heat capacity at constant pressure” value ([3]; 361.15 K, Crystal) was 306.86 ± 13 J/K/mol. The “molar heat capacity at constant pressure” value ([3]; 365.15 K, Crystal) was 309.09 ± 13 J/K/mol, the “molar heat capacity at constant pressure” value ([3]; 369.15 K, Crystal) was 314.38 ± 13 J/K/mol and the “molar heat capacity at constant pressure” value ([3]; 373.15 K, Crystal) was 317.58 ± 13 J/K/mol. For the same molecule, the “molar heat capacity at constant pressure” value ([3]; 433.15 K, Liquid) was 408.2 ± 17 J/K/mol, the “molar heat capacity at constant pressure” value ([3]; 437.15 K, Liquid) was 410.68 ± 17 J/K/mol and the “molar heat capacity at constant pressure” value ([3]; 441.15 K, Liquid) was 413.2 ± 18 J/K/mol. For the same molecule, the “molar heat capacity at constant pressure” value ([3]; 445.15 K, Liquid) was 415.66 ± 18 J/K/mol, the “molar heat capacity at constant pressure” value ([3]; 449.15 K, Liquid) was 417.96 ± 18 J/K/mol and the “molar heat capacity at constant pressure” value ([3]; 453.15 K, Liquid) was 420.63 ± 18 J/K/mol. For the same molecule, the “molar heat capacity at constant pressure” value ([3]; 457.15 K, Liquid) was 423.5 ± 18 J/K/mol, the “molar heat capacity at constant pressure” value ([3]; 461.15 K, Liquid) was 425.47 ± 18 J/K/mol and the “molar heat capacity at constant pressure” value ([3]; 465.15 K, Liquid) was 427.72 ± 18 J/K/mol. For the same molecule, the “molar heat capacity at constant pressure” value ([3]; 469.15 K, Liquid) was 429.91 ± 18 J/K/mol, the “molar heat capacity at constant pressure” value ([3]; 473.15 K, Liquid) was 432.48 ± 18 J/K/mol and the “molar heat capacity at constant pressure” value ([3]; 477.15 K, Liquid) was 434.9 ± 18 J/K/mol. For the same molecule, the “molar heat capacity at constant pressure” value ([3]; 481.15 K, Liquid) was 437.62 ± 19 J/K/mol, the “molar heat capacity at constant pressure” value ([3]; 485.15 K, Liquid) was 440.31 ± 19 J/K/mol and the “molar heat capacity at constant pressure” value ([3]; 489.15 K, Liquid) was 441.88 ± 19 J/K/mol. For the same molecule, the “molar heat capacity at constant pressure” value ([3]; 493.15 K, Liquid) was 444.14 ± 19 J/K/mol.
